According to patent US20140018347A1, “BENZOXAZEPINES AS INHIBITORS OF mTOR AND METHODS OF THEIR USE AND MANUFACTURE” (Exelixis, Inc., priority 2010, published 2014):

Legend:
mTORC1 = mTORC1 (Homo sapiens, UniProt P42345); assay: mTOR/GbL/Raptor (mTORC1) ELISA Assay; format: biochemical; settings: phosphorylation of 4E-BP1; 0.2 nM mTORC1, 10 μM ATP
Protocol: The measurement of mTORC1 enzyme activity was performed in an ELISA assay format following the phosphorylation of 4E-BP1 protein. All experiments were performed in the 384-well format. Generally, 0.5 μL DMSO containing varying concentrations of the test compound was mixed with 15 μL enzyme solution. Kinase reactions were initiated with the addition of 15 μL of substrates-containing solution. The assay conditions were as follows; 0.2 nM mTORC1, 10 μM ATP and 50 nM NHis-tagged 4E-BP1 in 20 mM Hepes, pH 7.2, 1 mM DTT, 50 mM NaCl, 10 mM MnCl2, 0.02 mg/mL BSA, 0.01% CHAPS, 50 mM β-glycerophosphate. Following an incubation of 120 minutes at ambient temperature, 20 μL of the reaction volume was transferred to a Ni-Chelate-coated 384-well plate. The binding step of the 4E-BP1 protein proceeded for 60 minutes, followed by washing 4 times each with 50 μL of Tris-buffered saline solution (TBS). Anti-phospho-4E-BP1 rabbit-IgG (20 μL, 1:5000) in 5% BSA-TBST (0.2% Tween-20 in TBS) was added and further incubated for 60 minutes. Incubation with a secondary HRP-tagged anti-IgG was similarly performed after washing off the primary antibody (4 washes of 50 μL). Following the final wash step with TBST, 20 μL of SuperSignal ELISA Femto (Pierce Biotechnology) was added and the luminescence measured using an EnVision plate reader.

PI3Kalpha = PI3Kalpha (Homo sapiens, UniProt P42336); assay: PI3K Biochemical Assays (PI3K-alpha assay); settings: ATP consumption, luciferase-luciferin; 1 μM ATP, 10 μM PIP2
Sequence of PI3Kalpha (P42336 whole entry): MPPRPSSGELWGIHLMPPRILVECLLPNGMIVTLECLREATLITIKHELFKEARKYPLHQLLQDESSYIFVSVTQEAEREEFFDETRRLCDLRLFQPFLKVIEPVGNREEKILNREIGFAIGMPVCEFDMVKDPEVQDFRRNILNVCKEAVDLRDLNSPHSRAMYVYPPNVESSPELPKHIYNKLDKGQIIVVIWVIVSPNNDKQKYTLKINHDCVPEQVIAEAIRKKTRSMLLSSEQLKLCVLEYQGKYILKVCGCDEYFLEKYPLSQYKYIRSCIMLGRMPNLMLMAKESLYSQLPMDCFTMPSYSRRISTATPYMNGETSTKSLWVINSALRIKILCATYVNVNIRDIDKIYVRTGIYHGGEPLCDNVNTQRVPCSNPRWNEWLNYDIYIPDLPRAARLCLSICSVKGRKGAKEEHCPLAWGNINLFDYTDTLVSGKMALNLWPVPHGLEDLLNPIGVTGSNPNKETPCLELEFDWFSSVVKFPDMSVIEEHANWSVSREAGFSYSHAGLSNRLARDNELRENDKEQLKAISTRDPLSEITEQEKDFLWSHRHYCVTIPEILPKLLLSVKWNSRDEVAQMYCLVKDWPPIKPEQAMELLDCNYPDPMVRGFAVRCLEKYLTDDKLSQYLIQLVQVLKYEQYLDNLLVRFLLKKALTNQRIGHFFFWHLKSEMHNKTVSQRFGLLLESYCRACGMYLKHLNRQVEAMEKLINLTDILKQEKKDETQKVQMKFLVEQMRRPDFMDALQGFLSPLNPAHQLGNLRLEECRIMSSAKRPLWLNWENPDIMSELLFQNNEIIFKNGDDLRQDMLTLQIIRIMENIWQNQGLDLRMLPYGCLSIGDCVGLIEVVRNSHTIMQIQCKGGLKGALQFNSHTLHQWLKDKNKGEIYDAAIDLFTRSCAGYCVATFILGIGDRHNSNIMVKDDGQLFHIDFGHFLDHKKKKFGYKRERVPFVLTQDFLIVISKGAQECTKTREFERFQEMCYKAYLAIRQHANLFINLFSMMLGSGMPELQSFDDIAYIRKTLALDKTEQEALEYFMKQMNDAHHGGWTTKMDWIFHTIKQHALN
Sequence of PI3Kalpha (P27986 whole entry partner): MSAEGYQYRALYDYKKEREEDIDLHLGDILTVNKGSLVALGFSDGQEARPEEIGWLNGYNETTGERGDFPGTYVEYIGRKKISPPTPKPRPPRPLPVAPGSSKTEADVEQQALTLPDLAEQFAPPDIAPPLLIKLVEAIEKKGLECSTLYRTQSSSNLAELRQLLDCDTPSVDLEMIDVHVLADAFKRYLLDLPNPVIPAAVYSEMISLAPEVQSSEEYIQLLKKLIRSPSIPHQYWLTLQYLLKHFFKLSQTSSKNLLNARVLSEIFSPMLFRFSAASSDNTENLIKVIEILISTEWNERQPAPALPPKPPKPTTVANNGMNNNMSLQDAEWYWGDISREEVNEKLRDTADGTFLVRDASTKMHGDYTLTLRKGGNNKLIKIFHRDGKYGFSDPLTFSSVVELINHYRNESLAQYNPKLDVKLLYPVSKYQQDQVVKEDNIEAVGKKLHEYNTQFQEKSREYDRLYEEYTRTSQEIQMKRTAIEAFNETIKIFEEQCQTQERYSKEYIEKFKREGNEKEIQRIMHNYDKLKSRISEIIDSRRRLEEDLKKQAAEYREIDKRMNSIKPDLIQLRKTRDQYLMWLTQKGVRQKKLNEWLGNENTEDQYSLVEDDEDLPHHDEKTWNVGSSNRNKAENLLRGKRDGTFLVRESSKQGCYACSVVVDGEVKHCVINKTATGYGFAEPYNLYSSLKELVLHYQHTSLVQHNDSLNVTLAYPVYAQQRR
Protocol: PI3Kn activity was measured as the percent of ATP consumed following the kinase reaction using luciferase-luciferin-coupled chemiluminescence. Reactions were conducted in 384-well white, medium binding microtiter plates (Greiner). Kinase reactions were initiated by combining test compounds, ATP, substrate (PIP2), and kinase in a 20 μL volume in a buffer solution. The standard PI3Kalpha assay buffer was composed 50 mM Tris, pH 7.5, 1 mM EGTA, 10 mM MgCl2, 1 mM DTT and 0.03% CHAPS. The standard assay concentrations for enzyme, ATP, and substrate were 3 nM, 1 μM, and 10 μM, respectively. The reaction mixture was incubated at ambient temperature for approximately 2 h. Following the kinase reaction, a 10 μL aliquot of luciferase-luciferin mix (Promega Kinase-Glo) was added and the chemiluminescence signal measured using a Victor2 or EnVision (Perkin Elmer). Total ATP consumption was limited to 40-60% and IC50 values of control compounds correlate well with literature references. Substituting PI3Kα with PI3Krβ, PI3Kγ, or PI3Kδ, the inhibitory activity of the compounds for the other isoforms of PI3K were measured. For the PI3Kβ and PI3Kδ assays, enzyme concentrations were 10 nM and 4 nM, respectively. For the PI3Kγ assay, enzyme concentration was 40 nM, the incubation time was 1 h, and the concentration of MgCl2 in the assay buffer was 5 mM.

SMILES: Cc1nc(CO)nc(N2CCOc3ccc(-c4cnc5sc(N)nc5c4)cc3C2)c1C(C)C [Compound 3, {4-[7-(2-amino[1,3]thiazolo[5,4-b]pyridin-6-yl)-2,3-dihydro-1,4-benzoxazepin-4(5H)-yl]-6-methyl-5-(1-methylethyl)pyrimidin-2-yl}methanol]
- IC50 (mTORC1): ≤ 100 nM
- IC50 (PI3Kalpha): ≤ 100 nM

SMILES: Cc1nc(N)nc(N2CCOc3ccc(-c4cnc5sc(N)nc5c4)cc3C2)c1-c1cccc(F)c1 [Compound 40, 6-{4-[2-amino-5-(3-fluorophenyl)-6-methylpyrimidin-4-yl]-2,3,4,5-tetrahydro-1,4-benzoxazepin-7-yl}[1,3]thiazolo[5,4-b]pyridin-2-amine]
- IC50 (mTORC1): ≤ 100 nM
- IC50 (PI3Kalpha): ≤ 100 nM

SMILES: Nc1nc2cc(-c3ccc4c(c3)CN(c3ncc(C(F)(F)F)c(N)n3)CCO4)cnc2s1 [Compound 81, 6-{4-[4-amino-5-(trifluoromethyl)pyrimidin-2-yl]-2,3,4,5-tetrahydro-1,4-benzoxazepin-7-yl}[1,3]thiazolo[5,4-b]pyridin-2-amine]
- IC50 (mTORC1): 100 to 500 nM
- IC50 (PI3Kalpha): 100 to 500 nM

SMILES: CCc1nc(N)nc(N2CCOc3ccc(-c4cnc5sc(N)nc5c4)cc3C2)c1C(C)C [Compound 29, 6-{4-[2-amino-6-ethyl-5-(1-methylethyl)pyrimidin-4-yl]-2,3,4,5-tetrahydro-1,4-benzoxazepin-7-yl}[1,3]thiazolo[5,4-b]pyridin-2-amine]
- IC50 (mTORC1): ≤ 100 nM
- IC50 (PI3Kalpha): ≤ 100 nM

SMILES: Cc1nc(CN(C)C)nc(N2CCOc3ccc(-c4cnc5sc(N)nc5c4)cc3C2)c1C(C)C [Compound 55, 6-(4-{2-[(dimethylamino)methyl]-6-methyl-5-(1-methylethyl)pyrimidin-4-yl}-2,3,4,5-tetrahydro-1,4-benzoxazepin-7-yl)[1,3]thiazolo[5,4-b]pyridin-2-amine]
- IC50 (mTORC1): ≤ 100 nM
- IC50 (PI3Kalpha): ≤ 100 nM

SMILES: Nc1cc(N2CCOc3ccc(-c4cnc5sc(N)nc5c4)cc3C2)ccn1 [Compound 94, 6-[4-(2-aminopyridin-4-yl)-2,3,4,5-tetrahydro-1,4-benzoxazepin-7-yl][1,3]thiazolo[5,4-b]pyridin-2-amine]
- IC50 (mTORC1): 500 to 2500 nM
- IC50 (PI3Kalpha): 500 to 2500 nM

SMILES: CC(C)c1c(Cl)nc(N)nc1N1CCOc2ccc(-c3cnc4sc(N)nc4c3)cc2C1 [Compound 8, 6-{4-[2-amino-6-chloro-5-(1-methylethyl)pyrimidin-4-yl]-2,3,4,5-tetrahydro-1,4-benzoxazepin-7-yl}[1,3]thiazolo[5,4-b]pyridin-2-amine]
- IC50 (mTORC1): ≤ 100 nM
- IC50 (PI3Kalpha): ≤ 100 nM

SMILES: Cc1nc(S(C)(=O)=O)nc(N2CCOc3ccc(-c4cnc5sc(N)nc5c4)cc3C2)c1C(C)C [Compound 24, 6-{4-[6-methyl-5-(1-methylethyl)-2-(methylsulfonyl)pyrimidin-4-yl]-2,3,4,5-tetrahydro-1,4-benzoxazepin-7-yl}[1,3]thiazolo[5,4-b]pyridin-2-amine]
- IC50 (mTORC1): ≤ 100 nM
- IC50 (PI3Kalpha): ≤ 100 nM

SMILES: COC(=O)Cc1c(C)nc(CN(C)C)nc1N1CCOc2ccc(-c3cnc4sc(N)nc4c3)cc2C1 [Compound 14, methyl {4-[7-(2-amino[1,3]thiazolo[5,4-b]pyridin-6-yl)-2,3-dihydro-1,4-benzoxazepin-4(5H)-yl]-2-[(dimethylamino)methyl]-6-methylpyrimidin-5-yl}acetate]
- IC50 (mTORC1): 100 to 500 nM
- IC50 (PI3Kalpha): ≤ 100 nM

SMILES: N#Cc1cnc(N)nc1N1CCOc2ccc(-c3cnc4sc(N)nc4c3)cc2C1 [Compound 79, 2-amino-4-[7-(2-amino[1,3]thiazolo[5,4-b]pyridin-6-yl)-2,3-dihydro-1,4-benzoxazepin-4(5H)-yl]pyrimidine-5-carbonitrile]
- IC50 (mTORC1): 100 to 500 nM
- IC50 (PI3Kalpha): ≤ 100 nM

SMILES: Nc1nc(Cl)c(CO)c(N2CCOc3ccc(-c4cnc5sc(N)nc5c4)cc3C2)n1 [Compound 43, {2-amino-4-[7-(2-amino[1,3]thiazolo[5,4-b]pyridin-6-yl)-2,3-dihydro-1,4-benzoxazepin-4(5H)-yl]-6-chloropyrimidin-5-yl}methanol]
- IC50 (mTORC1): 100 to 500 nM
- IC50 (PI3Kalpha): ≤ 100 nM

SMILES: COC(C)c1c(Cl)nc(N)nc1N1CCOc2ccc(-c3cnc4sc(N)nc4c3)cc2C1 (stereo not shown) [Compound 96, 6-(4-{2-amino-6-chloro-5-[1-(methyloxy)ethyl]pyrimidin-4-yl)-2,3,4,5-tetrahydro-1,4-benzoxazepin-7-yl)[1,3]thiazolo[5,4-b]pyridin-2-amine]
- IC50 (mTORC1): ≤ 100 nM
- IC50 (PI3Kalpha): ≤ 100 nM

SMILES: CC(=O)NCc1nc(C)c(C(C)C)c(N2CCOc3ccc(-c4cnc5sc(N)nc5c4)cc3C2)n1 [Compound 22, N-({4-[7-(2-amino[1,3]thiazolo[5,4-b]pyridin-6-yl)-2,3-dihydro-1,4-benzoxazepin-4(5H)-yl]-6-methyl-5-(1-methylethyl)pyrimidin-2-yl)methyl)acetamide]
- IC50 (mTORC1): ≤ 100 nM
- IC50 (PI3Kalpha): ≤ 100 nM

SMILES: Cc1nc(N)nc(N2CCOc3ccc(-c4cnc5sc(N)nc5c4)cc3C2)c1C=O [Compound 42, 2-amino-4-[7-(2-amino[1,3]thiazolo[5,4-b]pyridin-6-yl)-2,3-dihydro-1,4-bcnzoxazepin-4(5H)-yl]-6-methylpyrimidine-5-carbaldehyde]
- IC50 (mTORC1): 100 to 500 nM
- IC50 (PI3Kalpha): ≤ 100 nM

SMILES: Cc1nc(N)nc(N2CCOc3ccc(-c4cnc5sc(N)nc5c4)cc3C2)c1CCC#N [Compound 44, 3-{2-amino-4-[7-(2-amino[1,3]thiazolo[5,4-b]pyridin-6-yl)-2,3-dihydro-1,4-benzoxazepin-4(5H)-yl]-6-methylpyrimidin-5-yl}propanenitrile]
- IC50 (mTORC1): 100 to 500 nM
- IC50 (PI3Kalpha): ≤ 100 nM

SMILES: Nc1ncc(C(F)(F)F)c(N2CCOc3ccc(-c4cnc5sc(N)nc5c4)cc3C2)n1 [Compound 78, 6-{4-[2-amino-5-(trifluoromethyl)pyrimidin-4-yl]-2,3,4,5-tetrahydro-1,4-benzoxazepin-7-yl}[1,3]thiazolo[5,4-b]pyridin-2-amine]
- IC50 (mTORC1): ≤ 100 nM
- IC50 (PI3Kalpha): ≤ 100 nM

SMILES: CC1=CC(C)(C)Cc2c1nc(N)nc2N1CCOc2ccc(-c3cnc4sc(N)nc4c3)cc2C1 [Compound 97, 4-[7-(2-amino[1,3]thiazolo[5,4-b]pyridin-6-yl)-2,3-dihydro-1,4-benzoxazepin-4(5H)-yl]-6,6,8-trimethyl-5,6-dihydroquinazolin-2-amine]
- IC50 (mTORC1): ≤ 100 nM
- IC50 (PI3Kalpha): ≤ 100 nM

SMILES: COCCc1c(C)nc(N)nc1N1CCOc2ccc(-c3cnc4sc(N)nc4c3)cc2C1 [Compound 12, 6-(4-{2-amino-6-methyl-5-[2-(methyloxy)ethyl]pyrimidin-4-yl)-2,3,4,5-tetrahydro-1,4-benzoxazepin-7-yl)[1,3]thiazolo[5,4-b]pyridin-2-amine]
- IC50 (mTORC1): ≤ 100 nM
- IC50 (PI3Kalpha): ≤ 100 nM

SMILES: CC(C)(C)c1cnc(N)nc1N1CCOc2ccc(-c3cnc4sc(N)nc4c3)cc2C1 [Compound 47, 6-{4-[2-amino-5-(1,1-dimethylethyl)pyrimidin-4-yl]-2,3,4,5-tetrahydro-1,4-benzoxazepin-7-yl}[1,3]thiazolo[5,4-b]pyridin-2-amine]
- IC50 (mTORC1): 500 to 2500 nM
- IC50 (PI3Kalpha): 500 to 2500 nM

SMILES: Cc1nc(CN(C)C)nc(N2CCOc3ccc(-c4cnc5sc(N)nc5c4)cc3C2)c1-c1ccccc1 [Compound 37, 6-(4-{2-[(dimethylamino)methyl]-6-methyl-5-phenylpyrimidin-4-yl}-2,3,4,5-tetrahydro-1,4-benzoxazepin-7-yl)[1,3]thiazolo[5,4-b]pyridin-2-amine]
- IC50 (mTORC1): ≤ 100 nM
- IC50 (PI3Kalpha): ≤ 100 nM

SMILES: Nc1cc(N2CCOc3ccc(-c4cnc5sc(N)nc5c4)cc3C2)nc(Cl)n1 [Compound 51, 6-[4-(6-amino-2-chloropyrimidin-4-yl)-2,3,4,5-tetrahydro-1,4-benzoxazepin-7-yl][1,3]thiazolo[5,4-b]pyridin-2-amine]
- IC50 (mTORC1): 100 to 500 nM
- IC50 (PI3Kalpha): 500 to 2500 nM

SMILES: CC1=Cc2nc(N)nc(N3CCOc4ccc(-c5cnc6sc(N)nc6c5)cc4C3)c2CC1(C)C [Compound 98, 4-[7-(2-amino[1,3]thiazolo[5,4-b]pyridin-6-yl)-2,3-dihydro-1,4-benzoxazepin-4(5H)-yl]-6,6,7-trimethyl-5,6-dihydroquinazolin-2-amine]
- IC50 (mTORC1): ≤ 100 nM
- IC50 (PI3Kalpha): ≤ 100 nM

SMILES: Cc1c(Cl)nc(N)nc1N1CCOc2ccc(-c3cnc4sc(N)nc4c3)cc2C1 [Compound 31, 6-[4-(2-amino-6-chloro-5-methylpyrimidin-4-yl)-2,3,4,5-tetrahydro-1,4-benzoxazepin-7-yl][1,3]thiazolo[5,4-b]pyridin-2-amine]
- IC50 (mTORC1): 100 to 500 nM
- IC50 (PI3Kalpha): ≤ 100 nM
